Key:
BxPC-3 = assay: Cell viability assay, pancreatic cancer cell lines; format: cell-based; conditions: Homo sapiens; BxPC-3 (Pancreas); 48 h
Procedure: (§1) MiaPaCa-2, Panc-1 cells were grown in Dulbecco's modified eagle's medium (DMEM) (Gibco) supplemented with 10% fetal bovine serum (FBS), while BxPC-3, Capan-1, Capan-2 cells were grown in Roswell Park Memorial Institute 1640 (RPMI 1640) (Gibco) supplemented with 10% FBS. Gemcitabine (Gemzar) was purchased from Lilly France S.A.S (Suresnes, France). (3-(4,5-dimethylthiazol-2-yl)-2,5diphenyltetrazolium bromide, MTT) was purchased from Sigma-Aldrich.
(§2) BxPC-3, MiaPaCa-2, Panc-1 cells were seeded into a 96-well plate at 10,000 10,000 15,000 cells per well respectively, while Capan-1 and Capan-2 cells at 20,000 cells per well and allowed to adhere overnight. Then the culture medium was removed and replaced with fresh media alone as control or containing various concentrations of different compounds. In dose-dependent assay, the cells were treated with compound XIX-3 at the concentration varying from 0.1 μM to 100 μM while the cells being cultured by fresh media alone were used as control. After 48 h treatment, the number of remained viable cells was determined by (3-(4,5-dimethylthiazol-2-yl)-2,5diphenyltetrazolium bromide, MTT) colorimetric assay (see Sigma Aldrich protocol and Riss T. L. et al. Cell Viability Assays in Assay Guidance Manual 2013 ppl.). All experiments were done in duplicate and repeated two independent times.

Capan-1 = assay: Cell viability assay, pancreatic cancer cell lines; format: cell-based; conditions: Homo sapiens; Capan-1 (Pancreas); 48 h
Procedure: as §1, §2

Capan-2 = assay: Cell viability assay, pancreatic cancer cell lines; format: cell-based; conditions: Homo sapiens; Capan-2 (Pancreas); 48 h
Procedure: as §1, §2

MIA PaCa-2 = assay: Cell viability assay, pancreatic cancer cell lines; format: cell-based; conditions: Homo sapiens; MIA PaCa-2 (Pancreas); 48 h
Procedure: as §1, §2

Panc-1 = assay: Cell viability assay, pancreatic cancer cell lines; format: cell-based; conditions: Homo sapiens; Panc-1 (Pancreas); 48 h
Procedure: as §1, §2

B16F10 = assay: CellTiter-Glo cell viability assay (example 57); format: cell-based, human; conditions: Mus musculus, B16-F10; B16F10 (Melanoma); Cell Titer-Glo; 72 h
U87-MG = assay: CellTiter 96 Aqueous One Solution (MTS) cell proliferation assay; format: cell-based; conditions: Homo sapiens, U-87 MG; U87-MG (Glioma); Cell Titer 96 Aqueous One Solution; 72 h; mean of seven independent triplicate assays
Procedure: The human glioblastoma cell line U87-MG was cultured in Minimum Essential Medium (Life Invitrogen, 31095029) supplemented with 10% fetal bovine serum (GIBCO, 10500-056) and 1 % penicillin-streptomycin (GIBCO, 15140-122). Flasks and plated used for the cell culture were coated with 25 μg/mL poly-D-lysine (Sigma, P7280).
Cell outgrowth was measured using a tetrazolium compound (3-[4,5-dimethylthiazol-2-yl]-5-[3-carboxymethoxyphenyl]-2-[4-sulfophenyl]-2H tetrazolium, inner salt [MTS]) from the CellTiter 96® Aqueous One Solution Cell Proliferation Assay (Promega, Ref G3580) and according to the manufacturer procedure.
5000 cells were plated onto 96-well plates in 100 μL of media per well and were allowed to grow overnight before the assay. Compounds were added at different concentrations to each well, and cell cultures were incubated for 72 h. Control compound was the diluent used for compound resuspension (H2O). After addition of 20 μL of CellTiter 96® Aqueous One Solution, absorbance at 492 nm was measured using a microplate reader Sunrise (Tecan). EC50 values were determined as the dose of compound required to reduce […] values to 50% of the signal obtained for untreated cell cultures. […] The experimental data are analyzed using a computer program, Graphpad Prism (GraphPad Software, Inc. La Jolla, Calif.).

SK-MEL-28 cell line = assay: Combination of XIX-3 and Zelboraf, Bliss independence model; format: cell-based, human; conditions: XIX-3 associated with Zelboraf, 72 h
Procedure: The human melanoma cell line SK-MEL-28 was cultured in Minimum Essential Medium (MEM) supplemented with 10% Fetal Bovine Serum and 1% Penicillin-Streptomycin and maintained at 37° C. with 5% CO2.
SK-MEL-28 cells were plated at 2,500 cells per well onto 96-well plates in 90 μL of media per well and were allowed to grow overnight before the assay. XIX-3 and Zelboraf, a compound used for treatment for BRAF V600E mutation-positive metastatic melanoma, were added at different concentrations (combinations of five concentrations of XIX-3 and six concentrations of Zelboraf) to each well, and cell cultures were incubated for 72 h. […] Cell outgrowth was measured using a […] Aqueous One Solution Cell Proliferation Assay (Promega) and a TECAN Sunrise plate reader.
In each experiment, each point represents the average of triplicates in cell culture. The effects of drug-drug combinations are evaluated in the Bliss independence model (Prichard M. N. and Shipman C. Jr. Antivir. Res. 1990 (14) 181-205; Prichard, M. L. et al. Antimicrob Agents Chemother 1993 (37) 540-545). The theoretical additive effect is calculated from the dose-response curves of individual compounds by the equation: Z=X+Y(1−X) (7) Where: • Z represents the total inhibition produced by the combination of drugs X and Y. • X and Y represent the inhibition produced by drugs X and Y alone, respectively. […]

CCN(CC)C1CCN(C(C)c2cc(-c3ccccc3)nc3ccccc23)CC1.Cl.Cl (centres unmarked) [XIX-3, 2-phenyl-4-{1-[4-(N,N-diethylamino)piperidin-1-yl]-eth-1-yl}quinoline dihydrochloride]
EC50 (BxPC-3): 33 µM
EC50 (Capan-1): 27 µM
EC50 (Capan-2): 32 µM
EC50 (MIA PaCa-2): 34 µM
EC50 (Panc-1): 34 µM
EC50 (B16F10): 10 µM
EC50 (U87-MG): 26 µM
Combination effect on cell viability (Bliss independence model) (SK-MEL-28 cell line): additive effect (between −20% to +20% indicates additive effect)
